In patent publication US7157452B2, “Substituted 4,9-dihydrocyclopenta{imn}phenanthridine-5-ones derivatives thereof and their uses” (MGI GP, Inc., priority 2001, dated 2007):
Like-named read-outs stand apart in the source and are kept apart here.

Molecular target: T1, purified recombinant human PARP (Homo sapiens, UniProt P09874)
T1 construct: purchased Trevigan (Gaithersburg, Md.)
Test: PARP enzyme assay with [3H]NAD, scintillation counting
Type: biochemical
Protocol: The reaction is initiated by incubating the mixture at 25° C. After 15 minutes of incubation, the reaction is terminated by adding 500 microliters of ice cold 20% (w/v) trichloroacetic acid. The precipitate formed is transferred onto a glass fiber filter (Packard Unifilter-GF/B) and washed three times with ethanol. After the filter is dried, the radioactivity is determined by scintillation counting.
Using the PARP assay described above, approximate IC50 (μM) values were obtained as shown in the following Table III, which also include specific embodiments of the compounds of the present invention: […]

[1] = Table III, read-out: approximate IC50

T1 sequence (P09874 whole entry): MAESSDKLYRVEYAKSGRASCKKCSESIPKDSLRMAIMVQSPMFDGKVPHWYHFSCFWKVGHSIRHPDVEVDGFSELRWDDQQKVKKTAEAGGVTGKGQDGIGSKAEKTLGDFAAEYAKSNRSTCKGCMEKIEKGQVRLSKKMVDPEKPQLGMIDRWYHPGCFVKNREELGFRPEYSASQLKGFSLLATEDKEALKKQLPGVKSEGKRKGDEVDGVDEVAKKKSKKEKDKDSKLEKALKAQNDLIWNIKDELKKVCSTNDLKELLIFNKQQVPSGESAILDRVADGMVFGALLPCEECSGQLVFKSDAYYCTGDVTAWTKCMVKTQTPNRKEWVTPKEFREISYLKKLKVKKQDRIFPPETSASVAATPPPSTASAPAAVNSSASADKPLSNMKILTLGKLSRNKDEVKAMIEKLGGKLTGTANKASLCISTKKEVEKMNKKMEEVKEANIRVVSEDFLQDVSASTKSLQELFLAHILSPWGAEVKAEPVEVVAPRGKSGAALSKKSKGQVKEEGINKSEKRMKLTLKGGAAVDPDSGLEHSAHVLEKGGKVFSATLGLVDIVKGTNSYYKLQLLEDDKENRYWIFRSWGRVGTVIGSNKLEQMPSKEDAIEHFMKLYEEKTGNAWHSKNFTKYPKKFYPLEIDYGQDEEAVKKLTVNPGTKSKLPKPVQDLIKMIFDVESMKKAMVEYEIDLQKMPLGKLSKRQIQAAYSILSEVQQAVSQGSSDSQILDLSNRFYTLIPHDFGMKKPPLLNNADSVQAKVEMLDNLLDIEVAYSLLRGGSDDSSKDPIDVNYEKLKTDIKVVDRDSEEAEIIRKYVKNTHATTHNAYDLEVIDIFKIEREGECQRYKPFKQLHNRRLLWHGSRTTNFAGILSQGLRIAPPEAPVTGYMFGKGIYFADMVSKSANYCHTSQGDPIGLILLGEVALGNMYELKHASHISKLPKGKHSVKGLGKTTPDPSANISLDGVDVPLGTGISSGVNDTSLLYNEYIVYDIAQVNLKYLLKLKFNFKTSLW

SMILES | IC50 [1] | IC50 (examples table, read-out: IC50)
CCOC(=O)C1CCCN(S(=O)(=O)c2ccc3[nH]c(=O)c4cccc5c4c3c2C5)C1 (stereo not shown) [Example 2, 1-(5-Oxo-5,9-dihydro-4H-cyclopenta[lmn]phenanthridine-1-sulfonyl)-piperidine-3-carboxylic acid ethyl ester] | 0.137 µM | 0.137 µM
O=c1[nH]c2ccc(S(=O)(=O)N3CCN(CC4CCCO4)CC3)c3c2c2c(cccc12)C3 (stereo not shown) [Example 3] | 0.247 µM | 0.247 µM
O=c1[nH]c2ccc(S(=O)(=O)NCCCc3ccccc3)c3c2c2c(cccc12)C3 [Example 4] | 1.13 µM | 1.13 µM
O=c1[nH]c2ccc(S(=O)(=O)N3CCN(c4ccc(C(F)(F)F)cc4)CC3)c3c2c2c(cccc12)C3 [Example 7] | 0.269 µM | 0.269 µM
O=c1[nH]c2ccc(S(=O)(=O)N3CCN(c4ccc(F)cc4)CC3)c3c2c2c(cccc12)C3 [Example 8] | 0.335 µM | 0.335 µM
O=c1[nH]c2ccc(S(=O)(=O)N3CCN(c4ccc(F)cc4F)CC3)c3c2c2c(cccc12)C3 [Example 9] | 0.211 µM | 0.211 µM
CN1CCN(NS(=O)(=O)c2ccc3[nH]c(=O)c4cccc5c4c3c2C5)CC1 [Example 10] | 0.129 µM | 0.129 µM
O=c1[nH]c2ccc(S(=O)(=O)NCCc3ccccn3)c3c2c2c(cccc12)C3 [Example 15] | 0.114 µM | 0.114 µM
O=c1[nH]c2ccc(S(=O)(=O)NN3CCOCC3)c3c2c2c(cccc12)C3 [Example 16] | 0.092 µM | 0.092 µM
CN(C)CCN(C)S(=O)(=O)c1ccc2[nH]c(=O)c3cccc4c3c2c1C4 [Example 17] | 0.154 µM | 0.154 µM
CN(C)CCCN(C)S(=O)(=O)c1ccc2[nH]c(=O)c3cccc4c3c2c1C4 [Example 18] | 0.11 µM | 0.11 µM
O=c1[nH]c2ccc(S(=O)(=O)N3CCN(CCN4CCCC4)CC3)c3c2c2c(cccc12)C3 [Example 22] | 0.115 µM | 0.115 µM
CN1CCC(N2CCN(S(=O)(=O)c3ccc4[nH]c(=O)c5cccc6c5c4c3C6)CC2)CC1 [Example 23] | 0.166 µM | 0.166 µM
O=c1[nH]c2ccc(S(=O)(=O)N3CCN(c4ccncc4)CC3)c3c2c2c(cccc12)C3 [Example 24] | 0.929 µM | 0.929 µM
CN1CCC(CN2CCN(S(=O)(=O)c3ccc4[nH]c(=O)c5cccc6c5c4c3C6)CC2)CC1 [Example 25] | 0.165 µM | 0.165 µM
O=c1[nH]c2ccc(S(=O)(=O)N3CCN(CCN4CCCCC4)CC3)c3c2c2c(cccc12)C3 [Example 26] | 0.314 µM | 0.314 µM
O=c1[nH]c2ccc(S(=O)(=O)N3CCN(CCN4CCOCC4)CC3)c3c2c2c(cccc12)C3 [Example 27] | 0.634 µM | 0.634 µM

The remaining lines, values ahead:

IC50 [1] | IC50 (examples table, read-out: IC50) | SMILES
0.089 µM | 0.089 µM | O=c1[nH]c2ccc(S(=O)(=O)NCCN3CCCC3)c3c2c2c(cccc12)C3 [Example 5]
0.063 µM | 0.063 µM | O=c1[nH]c2ccc(S(=O)(=O)NCCCN3CCOCC3)c3c2c2c(cccc12)C3 [Example 6]
0.049 µM | 0.049 µM | O=C(CNCCN1CCCC1)Nc1ccc2[nH]c(=O)c3cccc4c3c2c1C4 [Example 11]
0.064 µM | 0.064 µM | CN1CCN(CCCNS(=O)(=O)c2ccc3[nH]c(=O)c4cccc5c4c3c2C5)CC1 [Example 12]
0.048 µM | 0.048 µM | CCN(CC)CCNS(=O)(=O)c1ccc2[nH]c(=O)c3cccc4c3c2c1C4 [Example 13]
0.091 µM | 0.091 µM | CCN(CC)CCCNS(=O)(=O)c1ccc2[nH]c(=O)c3cccc4c3c2c1C4 [Example 14]
0.052 µM | 0.052 µM | CN1CCN(CCCNS(=O)(=O)c2ccc3[nH]c(=O)c4cccc5c4c3c2C5)CC1 [Example 19]
0.077 µM | 0.077 µM | CCN(CC)CCNS(=O)(=O)c1ccc2[nH]c(=O)c3cccc4c3c2c1C4 [Example 20]
0.064 µM | 0.064 µM | CN(C)CCCN1CCN(S(=O)(=O)c2ccc3[nH]c(=O)c4cccc5c4c3c2C5)CC1 [Example 21]
